Reference: PMC12697872, “Rethinking the AI Paradigm for Solubility Prediction of Drug‑Like Compounds with Dual‐Perspective Modeling and Experimental Validation” (Advanced Science, 2025)
Converted amounts (≈) assume the structure as drawn. “And” between values parts separate entries of the source, which are not always exact repeats. Equal values may be shown once. Read-outs that look alike come from different tables or passages of the source.

Legend:
[1] = Saturation shake-flask aqueous solubility, gravimetric determination; conditions: for Experimental Class: European Pharmacopoeia solubility class from the experimental solubility; for solubility at 48 h / solubility thermodynamic at 48 h: thermodynamic from solid; for solubility at 48 h: Experimental Log S; for solubility thermodynamic at 48 h: water (saturated aqueous solution)
Method: Excess solid drug was added to a vial to prepare supersaturated aqueous solutions. The vial was placed in a constant temperature mixer (Titan Technology, SD2‐100) at 25 °C and shaken for 48 h at a speed of 500 rpm. […] After equilibration, the solution was centrifugated at room temperature at 8000 rpm, and the supernatant was collected. The concentration of the supernatant was determined using the gravimetric method. A measured volume of the supernatant (e.g. 1 mL) was transferred to a pre‐weighted empty vial, dried in a vacuum oven at 70 °C, and re‐weighed. The difference between the initial and final weights represents the drug content in the saturated solution. Each compound was tested in triplicate to ensure accuracy.

[2] = cited from earlier work; for LogS(mol/L): SC2-2 dataset (Second Solubility Challenge, loose subset), aqueous solubility; for Class: SC2-2 dataset, aqueous solubility class 0-6
[3] = 1H NMR on the saturated aqueous solution; assay type: physicochemical
Method: Each compound was tested in triplicate to ensure accuracy.

[4] = CASR-2 dataset, aqueous solubility class 0-6; cited from earlier work
[5] = cited from earlier work
[6] = water, 25 °C, shaken 48 h, triplicate, Log S = base-10 logarithm of moles per liter
[7] = water, 25 °C, averaged over triplicate
[8] = water, 25 °C, single replicate of triplicate

Row | Structure (SMILES) | LogS(mol/L) [2] | Class [2] | also measured
1 | Cc1cc(=O)oc2cc(O[C@@H]3O[C@H](CO)[C@@H](O)[C@H](O)[C@H]3O)ccc12 [4‐methylumbelliferyl β‐D‐glucoside] |  |  | Experimental Class [1]: 4 (Slightly soluble (4)); Experimental Log S [1, 6]: −1.886 ± 0.016
2 | N[C@@H](Cc1ccc(I)cc1)C(=O)O [4‐Iodo‐L‐phenylalanine] |  |  | Experimental Class [1]: 5 (Very slightly soluble (5)); solubility at 48 h [1, 6]: 1.81 mM (≈ 526 µg/mL)
3 | Clc1ccc(COC(Cn2ccnc2)c2ccc(Cl)cc2Cl)c(Cl)c1 (stereo not shown) | -5.82 mol/L | 6 (Practically insoluble or insoluble (6)) | 
4 | COc1cc(/C=C/C(=O)CC(=O)/C=C/c2ccc(O)c(OC)c2)ccc1O | -5.36 mol/L | 6 (Practically insoluble or insoluble (6)) | 
5 | COc1cc(NS(=O)(=O)c2ccc(N)cc2)nc(OC)n1 [COc1cc(NS(=O)(=O)c2ccc(N)cc2)nc(OC)n1] | -3.74 mol/L | 6 (Practically insoluble or insoluble (6)) | 
6 | CCc1ccc(CCOc2ccc(CC3SC(=O)NC3=O)cc2)nc1 (stereo not shown) [CCc1ccc(CCOc2ccc(CC3SC(=O)NC3=O)cc2)nc1] | -6.2 mol/L | 6 (Practically insoluble or insoluble (6)) | 
7 | CCCc1nc2c(C)cc(-c3nc4ccccc4n3C)cc2n1Cc1ccc(-c2ccccc2C(=O)O)cc1 | -6.73 mol/L | 6 (Practically insoluble or insoluble (6)) | 
8 | CC(=C(CCO)SSC(CCO)=C(C)N(C=O)Cc1cnc(C)nc1N)N(C=O)Cc1cnc(C)nc1N [Thiamine disulfide] |  |  | Experimental Class [1]: 4 (Slightly soluble (4)); Experimental Log S ([1]; single replicate of triplicate): -2.3811 and -2.3222; Experimental S ([1]; single replicate of triplicate): 1.9700 and 2.3400 and 2.6800; solubility thermodynamic at 48 h ([1]; 25 °C, water): 2330 µg/mL (≈ 4.14 mM); solubility at 48 h [1, 7]: 4.11 mM (≈ 2310 µg/mL); solubility at 48 h [1, 6]: 4.11 mM (≈ 2310 µg/mL); solubility at 48 h [1, 8]: 3.5 mM (≈ 1970 µg/mL)
9 | CCC(C)n1ncn(-c2ccc(N3CCN(c4ccc(OC[C@H]5CO[C@](Cn6cncn6)(c6ccc(Cl)cc6Cl)O5)cc4)CC3)cc2)c1=O (stereo partly shown) | -8.98 mol/L | 6 (Practically insoluble or insoluble (6)) | 
10 | O=C(c1ccc(OCCN2CCCCC2)cc1)c1c(-c2ccc(O)cc2)sc2cc(O)ccc12 |  | 6 (Practically insoluble or insoluble (6)) | 
11 | O=c1[nH]cnc2c1ncn2[C@H]1CC[C@@H](CO)O1 [O=c1[nH]cnc2c1ncn2[C@H]1CC[C@@H](CO)O1] |  | 3 (Sparingly soluble (3)) | 
12 | OC[C@H]1O[C@@H](n2cnc3c(O)ncnc32)C[C@@H]1O [Deoxyinosine] |  |  | Experimental Class [1]: 3 (Sparingly soluble (3)); Experimental Log S ([1]; single replicate of triplicate): -1.3814 and -1.3992; Experimental S ([1]; single replicate of triplicate): 10.1800 and 10.4800 and 10.0600; solubility thermodynamic at 48 h ([1]; 25 °C, water): 10200 µg/mL (≈ 40.6 mM); solubility at 48 h [1, 7]: 40.6 mM (≈ 10200 µg/mL); solubility at 48 h [1, 6]: 40.6 mM (≈ 10200 µg/mL); solubility at 48 h [1, 8]: 40.4 mM (≈ 10200 µg/mL)
13 | CC[C@]1(c2ccccc2)OC[C@H]([C@@H]2CCCCN2)O1 | -1.96 mol/L | 4 (Slightly soluble (4)) | 
14 | O=C(O)c1cc(-c2ccc(F)cc2F)ccc1O [O=C(O)c1cc(-c2ccc(F)cc2F)ccc1O] | -4.99 mol/L | 6 (Practically insoluble or insoluble (6)) | 
15 | O=C1[C@H](CC[C@H](O)c2ccc(F)cc2)[C@@H](c2ccc(O)cc2)N1c1ccc(F)cc1 | -4.94 mol/L | 6 (Practically insoluble or insoluble (6)) | 
16 | CCCC(=O)OC[C@@H](OC(=O)CCC)[C@@H](OC(=O)CCC)[C@H](Cn1c2nc(=O)[nH]c(=O)c-2nc2cc(C)c(C)cc21)OC(=O)CCC [riboflavin tetrabutyrate] |  |  | Solute in saturated aqueous solution by 1H NMR [3]: no existence of solute in the solution
17 | CC#C[C@]1(O)CC[C@H]2[C@@H]3CCC4=CC(=O)CCC4=C3[C@@H](c3ccc(N(C)C)cc3)C[C@@]21C | -5.22 mol/L | 6 (Practically insoluble or insoluble (6)) | 
18 | CC(C)C[C@H]1C(=O)N2CCC[C@H]2[C@]2(O)O[C@](NC(=O)[C@@H]3C=C4c5cccc6[nH]c(Br)c(c56)C[C@H]4N(C)C3)(C(C)C)C(=O)N12 | -5.5 mol/L | 6 (Practically insoluble or insoluble (6)) | 
19 | [2H]c1c([2H])c([2H])c2c(c1[2H])C([2H])([2H])C([2H])([2H])C([2H])([2H])C2([2H])[2H] |  |  | Class [4]: 3 (Sparingly soluble (3)); LogS ([5]; CASR-1 curated training data, aqueous, 25 ± 2 °C): -0.8582 mol/L; LogS(mol/L) ([5]; sheet Uncurated data, compiled records): -0.8582 mol/L
20 | COc1ccc2[nH]c([S+]([O-])Cc3ncc(C)c(OC)c3C)nc2c1 (stereo not shown) | -3.7 mol/L | 6 (Practically insoluble or insoluble (6)) | 
21 | Cc1cc(=O)oc2cc(O[C@@H]3O[C@H](CO)[C@@H](O)[C@H](O)[C@H]3O)ccc12 [4-methylumbelliferyl β-D-glucoside] |  |  | Experimental Log S ([1]; averaged over triplicate): -1.8858; Experimental S ([1]; averaged over triplicate): 4.4033; Experimental Log S ([1]; single replicate of triplicate): -1.8647 and -1.9030 and -1.8898; Experimental S ([1]; single replicate of triplicate): 4.6200 and 4.2300 and 4.3600
